Test results reported in PubChem BioAssay (NCI).
Where “and” joins values, the source holds several entries; their conditions need not be identical. Equal entries are not always repeated.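 Tested at 5 concentrations; 48 h exposure; 96-well plates; endpoints linearly interpolated, else capped at highest concentration. Abbreviation: GI50, concentration required for 50% inhibition of growth. Definition used: TGI = concentration required for complete inhibition of growth.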

Legend:
Assay in all cases: NCI tumour cell line growth inhibition, 48 h
[1] = tested on: HCC-2998 colon
[2] = tested on: HS 578T breast
[3] = tested on: MCF7 breast
[4] = tested on: MDA-MB-435
[5] = tested on: MOLT-4 leukemia
[6] = tested on: TK-10 renal
[7] = tested on: DLD-1 colon
[8] = tested on: SNB-78 CNS

`CC[C@@]1(c2ccccc2)C2=C(CC(C)(C)CC2=O)Nc2[nH]ncc21` showed a GI50 [1] of over 100 µM, a TGI [1] of over 100 µM and a GI50 [2] of 96.4 µM. The TGI [2] was over 100 µM, the GI50 [3] was over 100 µM and the TGI [3] was over 100 µM. It also gave a GI50 [4] of over 100 µM, a TGI [4] of over 100 µM and a GI50 [5] of over 100 µM. For the same compound, the TGI [5] was over 100 µM, the GI50 [6] was over 100 µM and the TGI [6] was over 100 µM.

In the case of `CCCn1c(=S)sc2c1nc(C)n1c(Nc3ccccc3)nnc21`, the GI50 [1] is reported as 3.27 µM, the TGI [1] is reported as 12.2 µM and the GI50 [2] is reported as 3.55 µM. For the same compound, the TGI [2] was 36 µM, the GI50 [3] was 6.31 µM and the TGI [3] was 47.3 µM. The GI50 [4] was 3.22 µM, the TGI [4] was 24.1 µM and the GI50 [5] was 3.02 µM. For the same compound, the TGI [5] was 48.3 µM, the GI50 [6] was 3.2 µM and the TGI [6] was 84 µM.

With `O=C(O)c1nn(-c2ccccc2-c2n[nH]c(=O)[nH]c2=O)c(=O)[nH]c1=O` the TGI [1] was over 100 µM, the TGI [2] was over 100 µM and the TGI [3] was over 100 µM. For the same compound, the TGI [4] was over 100 µM, the TGI [5] was over 100 µM and the TGI [6] was over 100 µM.

`Cc1ccc(C(=O)N(CCCN)C(c2oc3cc(Cl)ccc3c(=O)c2Cc2ccccc2)C(C)C)cc1` (configuration not stated) gave a GI50 [1] of under 0.01 µM, a TGI [1] of 1.58 µM and a GI50 [2] of under 0.01 µM. The TGI [2] was 1.46 µM, the GI50 [3] was under 0.01 µM and the TGI [3] was 1.39 µM. It also gave a GI50 [4] of under 0.01 µM, a TGI [4] of under 0.01 µM and a GI50 [5] of under 0.01 µM. It also gave a TGI [5] of 2.94 µM, a GI50 [6] of 1.11 µM and a TGI [6] of 2.37 µM.

`CCCCCCCCn1ccc2cc(NC(=O)Cn3cc(CN4CCCC4)nn3)ccc21` showed a GI50 [1] of 1.73 µM, a TGI [1] of 3.17 µM and a GI50 [2] of 1.91 µM. For the same compound, the TGI [2] was 4.74 µM, the GI50 [3] was 1.71 µM and the TGI [3] was 3.34 µM. It also gave a GI50 [4] of 1.73 µM, a TGI [4] of 3.24 µM and a GI50 [5] of 2.41 µM. It also gave a TGI [5] of 5.9 µM, a GI50 [6] of 1.71 µM and a TGI [6] of 3.3 µM.

`COc1cc[nH]c1/C=C1\C(=O)Nc2ccc(F)c(C#CC3(O)CCNCC3)c21` was tested, and the GI50 [1] was 0.368 µM, the TGI [1] was 0.979 µM and the GI50 [2] was 0.0754 µM. The TGI [2] was 1.54 µM, the GI50 [3] was 0.111 µM and the TGI [3] was 1.9 µM. The GI50 [4] was 0.0745 µM, the TGI [4] was 0.504 µM and the GI50 [5] was 0.063 µM. For the same compound, the TGI [5] was 0.965 µM, the GI50 [6] was 0.0291 µM and the TGI [6] was 0.72 µM.

In the case of `O=C1C(Cl)=C(NCCN2CCOCC2)C(=O)c2ncccc21`, the GI50 [1] is reported as 1.73 µM, the TGI [1] is reported as 2.85 µM and 3.47 µM and the GI50 [2] is reported as 3.39 µM. The TGI [2] was 4.97 µM and 19 µM, the GI50 [3] was 1.28 µM and the TGI [3] was 3.4 µM and 3.31 µM. The GI50 [4] was 0.267 µM, the TGI [4] was 0.372 µM and 0.686 µM and the GI50 [5] was 2.24 µM. For the same compound, the TGI [5] was 4.01 µM and 5.27 µM, the GI50 [6] was 16.5 µM and the TGI [6] was 3.44 µM and 30.3 µM.

`CC/C=C\C[C@@H](O)C/C=C1/C(=O)C=C[C@H]1C/C=C\CCCC(=O)OC` showed a GI50 [1] of 2.1 µM, a TGI [1] of 3.61 µM and a GI50 [2] of 4.06 µM. The TGI [2] was 26.2 µM, the GI50 [3] was 2.23 µM and the TGI [3] was 13.1 µM. It also gave a GI50 [4] of 1.93 µM, a TGI [4] of 5.86 µM and a GI50 [5] of 2.06 µM. For the same compound, the TGI [5] was 5.83 µM, the GI50 [6] was 11.6 µM and the TGI [6] was 24 µM.

`Cc1ccc(C(=O)NC(C)C)cc1-c1ccc(C(=O)NCC2CC2)cc1` showed a GI50 [1] of over 25 µM, a TGI [1] of over 25 µM and a GI50 [2] of over 25 µM. The TGI [2] was over 25 µM, the GI50 [3] was over 25 µM and the TGI [3] was over 25 µM. For the same compound, the GI50 [4] was over 25 µM, the TGI [4] was over 25 µM and the GI50 [5] was over 25 µM. The TGI [5] was over 25 µM, the GI50 [6] was over 25 µM and the TGI [6] was over 25 µM.

In the case of `COc1ccc2nc3c(C(=O)NCCN(C)C)cccc3nc2c1`, the TGI [7] is reported as over 1 µM, the TGI [1] is reported as 20 µM and the TGI [5] is reported as over 100 µM. It also gave a TGI [8] of 72 µM and a TGI [6] of 34.3 µM.
